Measurements: US8912169B2, “Beta-lactamase inhibitors” (VenatoRx Pharmaceuticals, Inc., priority 2012, dated 2014)

Tests used:
Format in all cases: biochemical
SHV-5 = biological target: T1, SHV-5 (Klebsiella pneumoniae, UniProt P0A3M1); test: β-lactamase enzyme inhibition, SHV-5
T1 construct: made in house; host or cells: E. coli BL21(DE3)
Procedure, shortened: (§1)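 Native untagged β-lactamases expressed in E. coli BL21(DE3) and purified, then pre-incubated with inhibitor 15 min at 37 °C. Hydrolysis was followed by absorbance: 100 μM nitrocefin at 486 nm for p99 AmpC and OXA-1; imipenem at 300 nm for KPC-2; cefotaxime at 260 nm for SHV-5. IC50 from initial-rate inhibition versus uninhibited controls.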

KPC-2 = biological target: T2, KPC-2 (Klebsiella pneumoniae, UniProt Q9F663); test: β-lactamase enzyme inhibition, KPC-2; details: substrate imipenem, 300 nm; read-out: Class A KPC-2 IC50
T2 construct: made in house; host or cells: E. coli BL21(DE3)
Procedure, shortened: as §1

VIM-2 = biological target: T3, VIM-2 (Escherichia coli, UniProt Q5U7L7); test: β-lactamase enzyme inhibition, VIM-2; details: substrate Nitrocefin 100 μM, 486 nm; read-out: Class B VIM-2 IC50
T3 construct: made in house; host or cells: E. coli BL21(DE3)
Procedure, shortened: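 Purified VIM-2 (Q sepharose, 50 mM Hepes pH 7.5, >90% purity) preincubated with inhibitor 15 min at 37° C, then nitrocefin added at 100 μM final. Hydrolysis followed at 486 nm for 10 min; IC50 from initial rates versus inhibitor-free control wells.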

p99 AmpC = biological target: T4, p99 AmpC (Enterobacter cloacae, UniProt P05364); test: β-lactamase enzyme inhibition, p99 AmpC
T4 construct: made in house; host or cells: E. coli BL21(DE3)
Procedure, shortened: as §1

OXA-1 = biological target: T5, OXA-1 (Escherichia coli, UniProt P13661); test: β-lactamase enzyme inhibition, OXA-1; details: substrate Nitrocefin 100 μM, 486 nm; read-out: Class D OXA-1 IC50
T5 construct: made in house; host or cells: E. coli BL21(DE3)
Procedure, shortened: as §1

`O=C(CC1CCC(N2CCOCC2)CC1)N[C@H]1Cc2cccc(C(=O)O)c2OB1O` (stereo partly drawn) [Example 40, (R)-2-hydroxy-3-(2-(4-morpholinocyclohexyl)acetamido)-3,4-dihydro-2H-benzo[e][1,2]oxaborinine-8-carboxylic acid] gave an IC50 (SHV-5) of 100 to 1000 nM, an IC50 (KPC-2) of less than 100 nM and an IC50 (VIM-2) of less than 100 nM. For the same molecule, the IC50 (p99 AmpC) was less than 100 nM and the IC50 (OXA-1) was less than 100 nM.
`CNCCN[C@H]1CC[C@H](CC(=O)N[C@H]2Cc3cccc(C(=O)O)c3OB2O)CC1` [Example 51, (R)-2-hydroxy-3-(2-(trans-4-(2-(methylamino)ethylamino)cyclohexyl)acetamido)-3,4-dihydro-2H-benzo[e][1,2]oxaborinine-8-carboxylic acid] showed an IC50 (SHV-5) of less than 100 nM, an IC50 (KPC-2) of less than 100 nM and an IC50 (VIM-2) of less than 100 nM. The IC50 (p99 AmpC) was less than 100 nM and the IC50 (OXA-1) was less than 100 nM.
`O=C(O)CN[C@H]1CC[C@H](CC(=O)N[C@H]2Cc3cccc(C(=O)O)c3OB2O)CC1` [Example 28, (R)-3-(2-(trans-4-(carboxymethylamino)cyclohexyl)acetamido)-2-hydroxy-3,4-dihydro-2H-benzo[e][1,2]oxaborinine-8-carboxylic acid] was tested, and the IC50 (SHV-5) was less than 100 nM, the IC50 (KPC-2) was less than 100 nM and the IC50 (VIM-2) was 1000 to 10000 nM. The IC50 (p99 AmpC) was less than 100 nM and the IC50 (OXA-1) was 100 to 1000 nM.
`O=C(C[C@H]1CC[C@H](N(Cc2ncc[nH]2)Cc2ncc[nH]2)CC1)N[C@H]1Cc2cccc(C(=O)O)c2OB1O` [Example 69, (R)-3-(2-(trans-4-(bis((1H-imidazol-2-yl)methyl)amino)cyclohexyl)acetamido)-2-hydroxy-3,4-dihydro-2H-benzo[e][1,2]oxaborinine-8-carboxylic acid] showed an IC50 (SHV-5) of less than 100 nM, an IC50 (KPC-2) of less than 100 nM and an IC50 (VIM-2) of less than 100 nM. It also gave an IC50 (p99 AmpC) of less than 100 nM and an IC50 (OXA-1) of less than 100 nM.
Work on `CN(C)C[C@H]1CC[C@H](CC(=O)N(C)[C@H]2Cc3cccc(C(=O)O)c3OB2O)CC1` [Example 8, (R)-3-(2-(trans-4-((dimethylamino)methyl)cyclohexyl)-N-methylacetamido)-2-hydroxy-3,4-dihydro-2H-benzo[e][1,2]oxaborinine-8-carboxylic acid] yielded an IC50 (SHV-5) of less than 100 nM, an IC50 (KPC-2) of less than 100 nM and an IC50 (VIM-2) of 1000 to 10000 nM. For the same molecule, the IC50 (p99 AmpC) was less than 100 nM and the IC50 (OXA-1) was 100 to 1000 nM.
In the case of `NC1CC(CC(=O)N[C@H]2Cc3cccc(C(=O)O)c3OB2O)C1` (stereo partly drawn) [Example 56, (R)-3-(2-(3-aminocyclobutyl)acetamido)-2-hydroxy-3,4-dihydro-2H-benzo[e][1,2]oxaborinine-8-carboxylic acid], the IC50 (SHV-5) is reported as 100 to 1000 nM, the IC50 (KPC-2) is reported as less than 100 nM and the IC50 (VIM-2) is reported as 100 to 1000 nM. The IC50 (p99 AmpC) was less than 100 nM and the IC50 (OXA-1) was less than 100 nM.
For `O=C(C[C@H]1CC[C@H](NCCNCCO)CC1)N[C@H]1Cc2cccc(C(=O)O)c2OB1O` [Example 61, (R)-2-hydroxy-3-(2-(trans-4-(2-(2-hydroxyethylamino)ethylamino)cyclohexyl)acetamido)-3,4-dihydro-2H-benzo[e][1,2]oxaborinine-8-carboxylic acid], the IC50 (SHV-5) was less than 100 nM, the IC50 (KPC-2) was less than 100 nM and the IC50 (VIM-2) was less than 100 nM. The IC50 (p99 AmpC) was less than 100 nM and the IC50 (OXA-1) was less than 100 nM.
`NC[C@H](N)C(=O)N[C@H]1CC[C@H](CC(=O)N[C@H]2Cc3cccc(C(=O)O)c3OB2O)CC1` [Example 13, (R)-3-(2-(trans-4-((S)-2,3-diaminopropanamido)cyclohexyl)acetamido)-2-hydroxy-3,4-dihydro-2H-benzo[e][1,2]oxaborinine-8-carboxylic acid] showed an IC50 (SHV-5) of less than 100 nM, an IC50 (KPC-2) of less than 100 nM and an IC50 (VIM-2) of 100 to 1000 nM. The IC50 (p99 AmpC) was less than 100 nM and the IC50 (OXA-1) was less than 100 nM.
Molecule `N[C@H]1CC[C@H](CCC(=O)N[C@H]2Cc3cccc(C(=O)O)c3OB2O)CC1` [Example 21, (R)-3-(3-(trans-4-aminocyclohexyl)propanamido)-2-hydroxy-3,4-dihydro-2H-benzo[e][1,2]oxaborinine-8-carboxylic acid] has an IC50 (SHV-5) of less than 100 nM, an IC50 (KPC-2) of less than 100 nM and an IC50 (VIM-2) of 1000 to 10000 nM. The IC50 (p99 AmpC) was less than 100 nM and the IC50 (OXA-1) was less than 100 nM.
`CC(C)NCCN[C@H]1CC[C@H](CC(=O)N[C@H]2Cc3cccc(C(=O)O)c3OB2O)CC1` [Example 71, (R)-2-hydroxy-3-(2-(trans-4-(2-(isopropylamino)ethylamino)cyclohexyl)acetamido)-3,4-dihydro-2H-benzo[e][1,2]oxaborinine-8-carboxylic acid] gave an IC50 (SHV-5) of less than 100 nM, an IC50 (KPC-2) of less than 100 nM and an IC50 (VIM-2) of less than 100 nM. For the same molecule, the IC50 (p99 AmpC) was less than 100 nM and the IC50 (OXA-1) was less than 100 nM.
